Activity calls are given as the source filed them.
Legend:
[1] = molecular target: T1, Fatty-acid amide hydrolase 1 (Mus musculus, UniProt O08914); experiment: Inhibition of mouse FAAH isolated from brain homogenate using [3H-ethanolamine]AEA as substrate incubated for 20 mins prior to substrate addition measured after 15 mins by beta counting analysis
T1 sequence (O08914 whole entry): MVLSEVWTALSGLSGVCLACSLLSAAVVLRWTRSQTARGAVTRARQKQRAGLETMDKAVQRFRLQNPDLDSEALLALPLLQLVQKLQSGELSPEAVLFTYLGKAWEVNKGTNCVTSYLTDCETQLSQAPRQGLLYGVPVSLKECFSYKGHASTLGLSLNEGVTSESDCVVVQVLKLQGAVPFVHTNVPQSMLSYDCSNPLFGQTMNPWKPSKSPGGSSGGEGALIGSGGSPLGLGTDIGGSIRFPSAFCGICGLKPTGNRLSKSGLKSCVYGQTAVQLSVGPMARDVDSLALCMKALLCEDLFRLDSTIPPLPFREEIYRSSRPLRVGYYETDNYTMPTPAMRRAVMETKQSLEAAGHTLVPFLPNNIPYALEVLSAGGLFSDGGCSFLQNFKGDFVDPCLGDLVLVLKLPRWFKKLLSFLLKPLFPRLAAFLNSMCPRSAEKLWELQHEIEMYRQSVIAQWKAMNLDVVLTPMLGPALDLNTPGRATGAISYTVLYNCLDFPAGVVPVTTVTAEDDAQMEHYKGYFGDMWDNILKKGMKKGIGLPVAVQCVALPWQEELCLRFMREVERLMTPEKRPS

[2] = molecular target: T2, Fatty-acid amide hydrolase 1 (Mus musculus) (UniProt O08914); experiment: Reversible inhibition of mouse FAAH isolated from brain homogenate using [3H-ethanolamine]AEA as substrate incubated for 20 mins prior to substrate addition measured after 18 hrs by […] method
T2 sequence (whole entry): T1 sequence (O08914 whole entry)

[3] = molecular target: T3, N-acyl-phosphatidylethanolamine-hydrolyzing phospholipase D (Mus musculus) (UniProt Q8BH82); experiment: Inhibition of NAPE-PLD-meidated AEA synthesis in mouse brain homogenate using [3H]NArPE as substrate incubated for 20 mins prior to substrate addition; format: tissue-based
T3 sequence (whole entry): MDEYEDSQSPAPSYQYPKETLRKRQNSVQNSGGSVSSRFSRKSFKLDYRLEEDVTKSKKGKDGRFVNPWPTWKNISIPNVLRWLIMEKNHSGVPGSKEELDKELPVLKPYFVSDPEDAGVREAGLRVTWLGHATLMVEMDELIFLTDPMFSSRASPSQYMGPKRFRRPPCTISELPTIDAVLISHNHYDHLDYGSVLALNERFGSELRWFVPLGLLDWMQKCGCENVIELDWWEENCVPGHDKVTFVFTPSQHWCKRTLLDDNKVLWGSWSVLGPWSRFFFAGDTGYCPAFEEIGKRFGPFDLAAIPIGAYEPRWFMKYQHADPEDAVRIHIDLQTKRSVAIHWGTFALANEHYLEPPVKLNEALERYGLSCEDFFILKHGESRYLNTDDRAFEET

[4] = molecular target: T2, Fatty-acid amide hydrolase 1 (Mus musculus); experiment: Non-competitive inhibition of mouse FAAH isolated from brain homogenate using [3H-ethanolamine]AEA as substrate by Lineweaver-Burk plot analysis
Rattus norvegicus [5] = experiment: Analgesic activity in rat assessed as increase in paw withdrawal threshold at 30 mg/kg, po; format: functional, organism-based; design: dose 30 mg/kg
Mus musculus [6] = experiment: Toxicity against CD1 mouse assessed as limbic/striatal stereotypies at 10 mg/kg, po at 240 mins by Irwin test; format: organism-based; design: dose 10 mg/kg, route oral; conditions: in vivo, 4 h
[7] = molecular target: Cannabinoid receptor 2 (Mus musculus) (UniProt P47936); experiment: Displacement of [3H]CP55.940 from CB2 receptor in mouse spleen fraction; format: tissue-based
Sequence of Cannabinoid receptor 2 (Mus musculus) (P47936 whole entry): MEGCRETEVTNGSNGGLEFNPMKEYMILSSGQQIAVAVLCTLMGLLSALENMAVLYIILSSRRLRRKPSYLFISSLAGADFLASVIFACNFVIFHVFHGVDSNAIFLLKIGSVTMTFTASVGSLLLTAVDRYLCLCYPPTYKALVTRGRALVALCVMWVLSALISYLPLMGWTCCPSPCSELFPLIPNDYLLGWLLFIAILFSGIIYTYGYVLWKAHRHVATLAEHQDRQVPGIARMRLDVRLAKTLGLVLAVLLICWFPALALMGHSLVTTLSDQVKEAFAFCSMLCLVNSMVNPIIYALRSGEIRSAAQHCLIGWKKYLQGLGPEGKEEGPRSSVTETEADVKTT

Mus musculus [8] = experiment: Toxicity against CD1 mouse assessed as limbic/striatal stereotypies at 30 mg/kg, po at 60 mins by Irwin test; format: organism-based; design: dose 30 mg/kg, route oral; conditions: in vivo, 1 h
[9] = molecular target: T4, Monoglyceride lipase (Mus musculus) (UniProt O35678); experiment: Inhibition of MAGL-mediated 2AG hydrolysis in mouse brain homogenate using [3H]2OG as substrate incubated for 20 mins prior to substrate addition; format: tissue-based
T4 sequence (whole entry): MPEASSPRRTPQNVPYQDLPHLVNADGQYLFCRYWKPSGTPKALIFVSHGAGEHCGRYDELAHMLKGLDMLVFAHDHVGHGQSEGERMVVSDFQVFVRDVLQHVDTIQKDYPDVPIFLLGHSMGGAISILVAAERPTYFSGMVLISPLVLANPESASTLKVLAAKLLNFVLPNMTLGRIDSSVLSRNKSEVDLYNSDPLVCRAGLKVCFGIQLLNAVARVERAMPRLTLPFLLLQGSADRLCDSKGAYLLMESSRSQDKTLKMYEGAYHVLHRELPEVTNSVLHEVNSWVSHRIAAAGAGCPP

Mus musculus [10] = species on record: Mus musculus; experiment: Inhibition of DAGL-mediated 2AG synthesis in mouse brain homogenate using […] as substrate incubated for 20 mins prior to substrate addition; format: tissue-based
Mus musculus [11] = experiment: Toxicity against CD1 mouse assessed as limbic/striatal stereotypies at 10 mg/kg, po at 60 mins by Irwin test; format: organism-based; design: dose 10 mg/kg, route oral; conditions: in vivo, 1 h
Mus musculus [12] = experiment: Anxiolytic activity in mouse at 10 mg/kg, po measured for 5 mins by elevated plus maze test; format: organism-based; design: dose 10 mg/kg, route oral; conditions: in vivo
Mus musculus [13] = experiment: Anxiolytic activity in mouse at 30 mg/kg, po measured for 5 mins by elevated plus maze test; format: organism-based; design: dose 30 mg/kg, route oral; conditions: in vivo
Mus musculus [14] = experiment: Anxiolytic activity in mouse at 3 mg/kg, po measured for 5 mins by elevated plus maze test; format: organism-based; design: dose 3 mg/kg, route oral; conditions: in vivo
Mus musculus [15] = experiment: Toxicity against CD1 mouse assessed as limbic/striatal stereotypies at 100 mg/kg, po at 240 mins by Irwin test; format: organism-based; design: dose 100 mg/kg, route oral; conditions: in vivo, 4 h
Rattus norvegicus [16] = experiment: Analgesic activity in rat assessed as increase in paw withdrawal threshold at 10 mg/kg, po; format: functional, organism-based; design: dose 10 mg/kg
Mus musculus [17] = experiment: Toxicity against CD1 mouse assessed as limbic/striatal stereotypies at 30 mg/kg, po at 240 mins by Irwin test; format: organism-based; design: dose 30 mg/kg, route oral; conditions: in vivo, 4 h
[18] = molecular target: Voltage-gated inwardly rectifying potassium channel KCNH2 (Homo sapiens, UniProt Q12809); experiment: Inhibition of human ERG expressed in CHOK1 cells for 5 mins by automated patch clamp assay; format: cell-based, CHO-K1
Sequence of Voltage-gated inwardly rectifying potassium channel KCNH2 (Q12809 whole entry): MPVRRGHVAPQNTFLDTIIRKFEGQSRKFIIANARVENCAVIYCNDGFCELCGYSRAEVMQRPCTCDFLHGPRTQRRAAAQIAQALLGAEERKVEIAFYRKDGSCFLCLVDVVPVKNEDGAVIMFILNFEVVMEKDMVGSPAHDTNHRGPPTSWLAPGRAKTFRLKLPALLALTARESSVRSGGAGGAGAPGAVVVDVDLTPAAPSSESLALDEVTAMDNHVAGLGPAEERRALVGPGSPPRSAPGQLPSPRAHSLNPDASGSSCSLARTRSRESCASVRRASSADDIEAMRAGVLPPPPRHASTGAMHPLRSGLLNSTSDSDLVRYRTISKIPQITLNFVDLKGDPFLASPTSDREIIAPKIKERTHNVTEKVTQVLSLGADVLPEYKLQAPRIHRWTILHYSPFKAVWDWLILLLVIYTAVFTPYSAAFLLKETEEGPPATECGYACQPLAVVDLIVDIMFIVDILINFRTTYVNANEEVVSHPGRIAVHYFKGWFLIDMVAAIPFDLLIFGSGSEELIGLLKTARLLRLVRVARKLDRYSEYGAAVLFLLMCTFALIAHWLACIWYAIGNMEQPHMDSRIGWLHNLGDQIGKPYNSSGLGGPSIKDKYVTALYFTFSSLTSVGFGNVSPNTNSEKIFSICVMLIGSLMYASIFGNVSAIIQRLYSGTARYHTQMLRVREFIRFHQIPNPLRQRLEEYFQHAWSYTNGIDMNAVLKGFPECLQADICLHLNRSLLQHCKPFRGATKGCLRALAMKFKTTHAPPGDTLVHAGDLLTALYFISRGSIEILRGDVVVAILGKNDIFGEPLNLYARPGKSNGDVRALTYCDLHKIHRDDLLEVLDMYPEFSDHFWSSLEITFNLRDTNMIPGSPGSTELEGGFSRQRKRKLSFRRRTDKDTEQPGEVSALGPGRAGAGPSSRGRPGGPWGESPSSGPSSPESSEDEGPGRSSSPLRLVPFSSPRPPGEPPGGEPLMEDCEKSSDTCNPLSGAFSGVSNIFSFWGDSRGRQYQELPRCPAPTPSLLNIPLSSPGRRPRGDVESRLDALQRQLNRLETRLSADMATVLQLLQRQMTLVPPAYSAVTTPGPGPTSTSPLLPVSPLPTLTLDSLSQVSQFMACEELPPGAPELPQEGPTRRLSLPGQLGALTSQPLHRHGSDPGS

Mus musculus [19] = experiment: Toxicity against CD1 mouse assessed as limbic/striatal stereotypies at 100 mg/kg, po at 60 mins by Irwin test; format: organism-based; design: dose 100 mg/kg, route oral; conditions: in vivo, 1 h
Rattus norvegicus [20] = experiment: Analgesic activity in rat assessed as increase in paw withdrawal threshold at 100 mg/kg, po; format: functional, organism-based; design: dose 100 mg/kg
[21] = molecular target: Transient receptor potential cation channel subfamily V member 1 (Mus musculus) (UniProt Q704Y3); experiment: Displacement of [3H]RTX from TRPV1 receptor in mouse brain fraction; format: tissue-based
Sequence of Transient receptor potential cation channel subfamily V member 1 (Mus musculus) (Q704Y3 whole entry): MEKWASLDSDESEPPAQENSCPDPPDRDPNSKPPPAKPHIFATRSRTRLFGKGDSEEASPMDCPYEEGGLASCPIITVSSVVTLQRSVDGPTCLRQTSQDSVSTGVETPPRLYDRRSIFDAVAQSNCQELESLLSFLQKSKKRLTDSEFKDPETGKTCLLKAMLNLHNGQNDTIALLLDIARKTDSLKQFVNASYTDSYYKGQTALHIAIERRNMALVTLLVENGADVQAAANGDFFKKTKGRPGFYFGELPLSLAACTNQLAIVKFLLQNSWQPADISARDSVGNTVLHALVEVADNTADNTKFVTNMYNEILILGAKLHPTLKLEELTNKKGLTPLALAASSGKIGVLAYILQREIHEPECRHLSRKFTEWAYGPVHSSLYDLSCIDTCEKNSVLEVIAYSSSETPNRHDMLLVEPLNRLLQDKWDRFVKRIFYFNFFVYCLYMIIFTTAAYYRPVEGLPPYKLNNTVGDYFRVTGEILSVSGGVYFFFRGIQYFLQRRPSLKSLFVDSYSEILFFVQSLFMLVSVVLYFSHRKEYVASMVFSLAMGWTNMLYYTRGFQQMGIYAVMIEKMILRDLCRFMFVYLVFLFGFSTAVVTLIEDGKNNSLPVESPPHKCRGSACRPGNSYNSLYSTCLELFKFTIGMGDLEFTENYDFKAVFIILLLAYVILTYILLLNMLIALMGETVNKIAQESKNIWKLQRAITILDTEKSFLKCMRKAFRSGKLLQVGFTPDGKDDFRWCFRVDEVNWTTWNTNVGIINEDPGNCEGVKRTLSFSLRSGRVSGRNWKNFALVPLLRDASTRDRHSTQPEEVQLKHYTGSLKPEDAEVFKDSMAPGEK

[22] = molecular target: Cannabinoid receptor 1 (Mus musculus) (UniProt P47746); experiment: Displacement of [3H]CP55.940 from CB1 receptor in mouse brain fraction; format: tissue-based
Sequence of Cannabinoid receptor 1 (Mus musculus) (P47746 whole entry): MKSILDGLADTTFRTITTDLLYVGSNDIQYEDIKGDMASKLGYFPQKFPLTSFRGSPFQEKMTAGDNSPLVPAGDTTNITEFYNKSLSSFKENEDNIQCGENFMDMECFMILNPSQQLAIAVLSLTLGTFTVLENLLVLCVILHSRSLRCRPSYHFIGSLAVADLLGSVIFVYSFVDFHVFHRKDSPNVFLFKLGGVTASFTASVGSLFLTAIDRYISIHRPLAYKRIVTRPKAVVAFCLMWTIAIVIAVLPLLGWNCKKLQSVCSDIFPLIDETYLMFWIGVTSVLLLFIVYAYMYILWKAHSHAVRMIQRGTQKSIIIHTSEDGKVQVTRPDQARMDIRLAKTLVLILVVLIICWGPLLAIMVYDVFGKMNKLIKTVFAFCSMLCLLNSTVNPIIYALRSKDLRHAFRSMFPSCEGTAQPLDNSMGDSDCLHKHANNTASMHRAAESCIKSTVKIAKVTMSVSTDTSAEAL

[23] = molecular target: T5, Fatty-acid amide hydrolase 1 (Homo sapiens, UniProt O00519); experiment: Inhibition of human recombinant FAAH
T5 sequence (O00519 whole entry): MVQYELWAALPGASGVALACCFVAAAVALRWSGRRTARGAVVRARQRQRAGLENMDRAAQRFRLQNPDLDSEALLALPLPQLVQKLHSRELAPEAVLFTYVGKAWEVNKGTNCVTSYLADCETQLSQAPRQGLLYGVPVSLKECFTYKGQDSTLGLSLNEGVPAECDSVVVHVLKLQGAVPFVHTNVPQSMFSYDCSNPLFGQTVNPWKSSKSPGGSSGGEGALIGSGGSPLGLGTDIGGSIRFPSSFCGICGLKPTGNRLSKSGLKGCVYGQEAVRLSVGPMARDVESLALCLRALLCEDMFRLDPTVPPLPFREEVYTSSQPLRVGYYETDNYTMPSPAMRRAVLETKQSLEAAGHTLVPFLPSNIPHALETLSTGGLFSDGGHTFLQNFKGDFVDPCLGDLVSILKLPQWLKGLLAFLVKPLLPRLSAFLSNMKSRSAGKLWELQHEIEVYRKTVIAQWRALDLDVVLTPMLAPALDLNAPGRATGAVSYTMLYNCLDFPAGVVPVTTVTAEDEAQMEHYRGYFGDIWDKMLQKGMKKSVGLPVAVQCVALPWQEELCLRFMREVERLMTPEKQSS

## NC(=O)c1ccn(-c2cccc(OC(=O)NCCOCCOc3c(F)cc(F)cc3F)c2)c1
[1]
  IC50: 43 nM
  Ki: 11 nM

## NC(=O)c1ccn(-c2cccc(OC(=O)NCCOCCOc3ccccc3)c2)c1
[1]
  IC50: 87 nM
  Ki: 23 nM

## O=C(NC1CCCCC1)Oc1cccc(-n2ccc(C(=O)OCCCCCCc3ccccc3)c2)c1
[1]
  IC50: > 50000 nM

## NC(=O)c1ccn(-c2cccc(OC(=O)NCCOCCOc3ccc(F)cc3)c2)c1
[1]
  IC50: 31 nM
  Ki: 8 nM
[2]
  inhibition: Active

## CCCCNC(=O)Oc1cccc(-n2ccc(C(=O)OCCCCCCc3ccccc3)c2)c1
[1]
  IC50: > 200 nM

## Cc1oc(-c2cccc(OC(=O)NC3CCCCC3)c2)cc1C(N)=O
[1]
  IC50: > 200 nM

## NC(=O)c1ccn(-c2cccc(OC(=O)NCCOCCOc3ccccc3F)c2)c1
[1]
  IC50: 69 nM
  Ki: 18 nM

## Cc1cc(C(N)=O)c(-c2cccc(OC(=O)NC3CCCCC3)c2)o1
[1]
  IC50: > 70 nM

## NC(=O)c1ccn(-c2cccc(OC(=O)NCCCCCCc3ccccc3)c2)c1
[3]
  inhibition: inactive
[4]
  inhibition: Active
Rattus norvegicus [5]
  Activity: Active
Mus musculus [6]
  Activity: Toxic
[7]
  Activity: inactive
Mus musculus [8]
  Activity: Toxic
[9]
  inhibition: inactive
Mus musculus [10]
  inhibition: inactive
Mus musculus [11]
  Activity: Toxic
Mus musculus [12]
  Activity: Non-toxic
Mus musculus [13]
  Activity: Non-toxic
Mus musculus [14]
  Activity: Non-toxic
Mus musculus [15]
  Activity: Toxic
Rattus norvegicus [16]
  Activity: inactive
Mus musculus [17]
  Activity: Toxic
[18]
  IC50: > 10000 nM
Mus musculus [19]
  Activity: Toxic
[1]
  IC50: 0.6 nM
  Ki: 0.16 nM
[2]
  inhibition: Active
Rattus norvegicus [20]
  Activity: Active
[21]
  Activity: inactive
[22]
  Activity: inactive

## COc1cccc(-c2c(C(=O)NCCCCCCc3ccccc3)cc(C)n2Cc2ccccc2)c1
[1]
  IC50: > 200 nM

## CCCCNC(=O)Oc1cccc(-c2sc(C)cc2C(N)=O)c1
[1]
  IC50: > 200 nM

## CCCCNC(=O)Oc1cccc(-c2oc(C)cc2C(N)=O)c1
[1]
  IC50: 530 nM
  Ki: 140 nM

## Cc1cc(C(N)=O)c(-c2cccc(OC(=O)NCCCCCCc3ccccc3)c2)o1
[3]
  inhibition: inactive
Rattus norvegicus [5]
  Activity: Active
Mus musculus [6]
  Activity: Non-toxic
[7]
  Activity: inactive
Mus musculus [8]
  Activity: Toxic
[9]
  inhibition: inactive
Mus musculus [10]
  inhibition: inactive
Mus musculus [11]
  Activity: Toxic
Mus musculus [12]
  Activity: Non-toxic
Mus musculus [13]
  Activity: Non-toxic
[23]
  IC50: 102 nM
Mus musculus [14]
  Activity: Non-toxic
Mus musculus [15]
  Activity: Non-toxic
Rattus norvegicus [16]
  Activity: inactive
Mus musculus [17]
  Activity: Non-toxic
[18]
  IC50: > 10000 nM
Mus musculus [19]
  Activity: Toxic
[1]
  IC50: 1.7 nM
  Ki: 0.49 nM
Rattus norvegicus [20]
  Activity: Active
[21]
  Activity: inactive
[22]
  Activity: inactive

## Cc1cc(C(N)=O)c(-c2cccc(OC(=O)NCCCCCCc3ccccc3)c2)s1
[3]
  inhibition: inactive
[4]
  inhibition: Active
[7]
  Activity: inactive
[9]
  inhibition: inactive
Mus musculus [10]
  inhibition: inactive
[18]
  IC50: > 10000 nM
[1]
  IC50: 1.9 nM
  Ki: 0.5 nM
[2]
  inhibition: Active
[21]
  Activity: inactive
[22]
  Activity: inactive
